Test [1] deals with PTP1B. In words: Reversibility of PTP1B inhibition by triterpenes (Table 2). The format is biochemical.
In test [2] the target is PTP1B321 (Homo sapiens, UniProt P18031). Description: Triterpene inhibition of PTP1B321 (Table 2). The format is biochemical.
Test [3] deals with PTP1B405 (Homo sapiens, UniProt P18031). Description: Triterpene inhibition of PTP1B405 (Table 2). The test is classed as biochemical.
In test [4] the test system is Mecp2 mutant mice. In words: Anti-diabetic small molecules in Mecp2 mutant mice (FIG. 6D).
The test system of test [5] is Mecp2−/y mice. In words: Survival of Mecp2-null male mice. To be noted: for survival (in words): Mecp2-null male mice, 5 mg/kg.
Test [6] has as its system Mecp2−/y mice. In words: Glucose tolerance test in Mecp2−/y male mice. The note with it: 5 mg/Kg, two weeks after treatment.
For test [7], the system named is panel of six PTPs and two dual-specificity phosphatases. In words: Specificity against a panel of phosphatases. The test is classed as biochemical. The method, then:
(§1) In this example, in order to determine the significance of the elevated PTP1B levels in animal models of Rett syndrome, the effects of small molecule inhibitors of the phosphatase were tested. Using para-Nitro Phenyl Phosphate (pNPP) as substrate, PTP1B inhibition by CPT157633 was studied (FIG. 13A). […] To obtain structural insights into the PTP1B-CPT157633 interaction, both biomolecular NMR spectroscopy and X-ray crystallography were used. Residues 1-301 from the catalytic domain of PTP1B were expressed in D2O-based medium and 2D [^1H,^15N] TROSY spectra were recorded in the absence and presence of CPT157633. […] This was confirmed by the crystal structure of the PTP1B:CTP157633 complex, which illustrated a non-covalent interaction. Electrostatic interactions made by the compound to critical active site residues are highlighted in FIG. 13G.
(§2) A second inhibitor of PTP1B that exerts its effect on the enzyme by a different mechanism was characterized. […] It inhibited PTP1B with selectivity compared to a panel of eight phosphatases investigated.

In test [8] the target is PTP1B (Homo sapiens (Human), UniProt P18031). In words: PTP1B phosphatase inhibition. The test is classed as biochemical. The protocol: as §1, §2
Chain of PTP1B (Homo sapiens (Human), UniProt P18031) (P18031 whole entry): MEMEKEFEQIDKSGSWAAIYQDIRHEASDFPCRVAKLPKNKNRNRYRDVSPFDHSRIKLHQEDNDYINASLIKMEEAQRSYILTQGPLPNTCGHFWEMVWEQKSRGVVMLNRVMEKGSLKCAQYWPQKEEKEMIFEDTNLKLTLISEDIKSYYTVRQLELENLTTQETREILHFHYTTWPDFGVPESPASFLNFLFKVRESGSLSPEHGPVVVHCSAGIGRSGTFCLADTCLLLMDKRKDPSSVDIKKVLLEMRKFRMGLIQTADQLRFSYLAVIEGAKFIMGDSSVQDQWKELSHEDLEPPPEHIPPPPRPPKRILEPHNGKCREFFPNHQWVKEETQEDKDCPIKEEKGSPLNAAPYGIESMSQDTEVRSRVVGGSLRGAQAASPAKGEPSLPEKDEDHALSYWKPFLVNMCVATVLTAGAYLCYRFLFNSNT

As usually defined, the Ki is the equilibrium dissociation constant of an inhibitor or competing ligand from its target. A low value points to a stronger hold on the target.

The structures appear in SMILES notation.

For the molecule `CC1(C)[C@@H](O)CC[C@]2(C)[C@H]3C(=O)C=C4[C@@H]5C[C@@](C)(C(=O)O)CC[C@]5(C)CC[C@@]4(C)[C@]3(C)CC[C@@H]12`, the Reversibility entry in test [1] is listed as “Reversible”.
As to `CC1=C(O)C(=O)C=C2C1=CC=C1[C@@]2(C)CC[C@@]2(C)[C@@H]3C[C@](C)(C(=O)O)CC[C@]3(C)CC[C@]12C`, the Ki in test [2] and in test [3] was 10 µM each time. In addition, the Reversibility entry in test [1] was “Irreversible”.
As to `COC(=O)[C@]1(C)CC[C@]2(C)CC[C@]3(C)C4=CC=C5C(=CC(=O)C(O)=C5C)[C@]4(C)CC[C@@]3(C)[C@@H]2C1`, the Ki came out at 10 µM in test [2] and 8 µM in test [3]. Besides, in test [1], the Reversibility result is “Irreversible”.
Take `CC1(C)CC[C@]2(C(=O)O)CC[C@]3(C)C(=CCC4[C@@]5(C)C[C@@H](O)[C@H](O)C(C)(C)[C@@H]5CC[C@]43C)[C@@H]2C1` (stereo partly drawn): the Ki in test [2] worked out at 10 µM; in test [3], 5.7 µM. Moreover, the Reversibility result in test [1] is recorded as “Reversible”.
For `CC1(C)CC[C@]2(C(=O)O)CC[C@]3(C)C(=CC[C@@H]4[C@@]5(C)C[C@@H](O)[C@H](O)[C@@](C)(CO)[C@@H]5CC[C@]43C)[C@@H]2C1` the same measures were 8.3 µM, 7 µM and “Reversible”.
Turning to `CC1(C)CC[C@]2(C(=O)O)CC[C@]3(C)C(=CC[C@@H]4[C@@]5(C)CC[C@H](O)[C@@](C)(CO)[C@@H]5CC[C@]43C)[C@@H]2C1`, the Ki in test [2] amounted to 3.6 µM; in test [3], 2 µM. The Reversibility entry in test [1] is reported as “Reversible”.
With `C=C(C)[C@@H]1CC[C@]2(CO)CC[C@]3(C)[C@H](CC[C@@H]4[C@@]5(C)CC[C@H](O)C(C)(C)[C@@H]5CC[C@]43C)[C@@H]12`, the Ki worked out at 3 µM in test [2] and 2 µM in test [3]. For the same molecule, in test [1], the Reversibility result is “Reversible”.
For `C=C(C)[C@@H]1CC[C@]2(C)CC[C@]3(C)[C@H](CC[C@@H]4[C@@]5(C)CC[C@H](O)C(C)(C)[C@@H]5CC[C@]43C)[C@@H]12`, the Ki worked out at 2.5 µM in test [2] and 1.5 µM in test [3]. For the same molecule, the Reversibility result in test [1] was “Reversible”.
As to `C[C@H]1[C@H](C)CC[C@]2(CO)CC[C@]3(C)C(=CC[C@@H]4[C@@]5(C)CC[C@H](O)C(C)(C)[C@@H]5CC[C@]43C)[C@H]12`, in test [1], the Reversibility result was “Reversible”.
On to `C[C@H]1[C@H](C)CC[C@]2(C(=O)O)CC[C@]3(C)C(=CC[C@@H]4[C@@]5(C)CC[C@H](O)C(C)(C)C5CC[C@]43C)[C@H]12` (stereo partly drawn), for which the Reversibility entry in test [1] is recorded as “Reversible”.
As to `C=C(C)C1CC[C@]2(C(=O)O)CC[C@]3(C)[C@H](CC[C@@H]4[C@@]5(C)CC[C@H](O)C(C)(C)[C@@H]5CC[C@]43C)[C@@H]12` (stereo partly drawn), the Ki was determined as 3 µM in test [2] and 0.7 µM in test [3]. Further, the Reversibility result in test [1] is on record as “Irreversible”.
For `C[C@H]1[C@H](C)CC[C@]2(C(=O)O)CC[C@]3(C)C(=CC[C@@H]4[C@@]5(C)C[C@@H](O)[C@H](O)C(C)(C)[C@@H]5CC[C@]43C)[C@H]12`, the Ki in test [2] came to 3 µM; in test [3], 1.5 µM. In addition, the Reversibility result in test [1] is listed as “Irreversible”.
For the molecule `CC1(C)CC[C@]2(C(=O)O)CC[C@]3(C)C(=CC[C@@H]4[C@@]5(C)CC[C@H](O)C(C)(C)[C@@H]5CC[C@]43C)[C@@H]2C1`, in test [1], the Reversibility entry is given as “Reversible”.
`CC1(C)CC[C@]2(C)CC[C@]3(C)C(=CC[C@@H]4[C@@]5(C)CC[C@@H](O)[C@](C)(C(=O)O)[C@@H]5CC[C@]43C)[C@@H]2C1`: the values for the Ki in test [2] and in test [3] were 6 µM and 4 µM, respectively. In test [1], the Reversibility result was “Reversible”.
For `C[C@H]1C(=O)CC[C@H]2[C@]1(C)CC[C@]13C[C@@]14CC[C@@]1(C)CCC(C)(C)C[C@]15C[C@]54CC[C@@]23C` the same measures were 4 µM, 2 µM and “Reversible”.
For `COC[C@]12CC[C@@H](C)[C@H](C)[C@H]1[C@@]1(O)C=C[C@@H]3[C@@]4(C)CCC(=O)C(C)(C)[C@@H]4CC[C@@]3(C)[C@]1(C)CC2` the same measures were 15 µM, 15 µM and “Reversible”.
For `CC1CCC23CCC4(C)C5(C)CCC6C(C)(C)C(=O)CCC6(C)C5C=CC4(OC2)C3C1C` (stereo not drawn) the same measures were 13 µM, 11 µM and “Reversible”.
Take `CC1(C)C=C2[C@H]3CC[C@@H]4[C@@]5(C)CCC(=O)C(C)(C)[C@@H]5CC[C@@]4(C)[C@]3(C)CC[C@@]2(C(=O)O)CC1`: the Ki amounted to 7 µM in test [2] and 5 µM in test [3]. Also, the Reversibility result in test [1] is reported as “Reversible”.
On the same counts, the results for `C[C@H]1[C@H](C)CC[C@]2(C)CC[C@]3(C)C(=CC[C@@H]4[C@@]5(C)CC[C@H](O)C(C)(C)[C@@H]5CC[C@]43C)[C@H]12` are 6 µM, 4 µM and “Irreversible”.
Turning to `C=C(C)[C@@H]1CC[C@]2(C(=O)O)CC[C@]3(C)[C@H](CC[C@@H]4[C@@]5(C)CC[C@H](OC(=O)CC(C)(C)C(=O)O)C(C)(C)[C@@H]5CC[C@]43C)[C@@H]12`, the Ki in test [2] was found to be 7 µM; in test [3], 4.4 µM. Besides, the Reversibility entry in test [1] is “Irreversible”.
For `CC(C)[C@H]1CC[C@]2(C)[C@H]3CC[C@@H]4[C@@]5(C)CCCC(C)(C)[C@@H]5CC[C@@]4(C)[C@]3(C)CC[C@@H]12` the same measures were 9 µM, 5.7 µM and “Reversible”.
Consider `CC1(C)CC[C@]2(C)CC[C@]3(C)[C@H](CC[C@@H]4[C@@]5(C)CCCC(C)(C)[C@@H]5CC[C@]43C)[C@@H]2C1`, for which the Ki in test [2] came to 15 µM; in test [3] it was 9 µM. For the same molecule, the Reversibility entry in test [1] is recorded as “Reversible”.
On to `CC1(C)[C@@H](OC(=O)CCC(=O)O)CC[C@]2(C)[C@H]3C(=O)C=C4[C@@H]5C[C@@](C)(C(=O)O)CC[C@]5(C)CC[C@@]4(C)[C@]3(C)CC[C@@H]12`, for which the Ki was 7 µM in test [2] and 5 µM in test [3]. Besides, the Reversibility entry in test [1] is recorded as “Reversible”.
On the same counts, the results for `CC1(C)CCC[C@](C)([C@H]2CC[C@]3(C)[C@@H]2[C@H](O)C[C@@H]2[C@@]4(C)CC[C@H](O)C(C)(C)[C@@H]4[C@H](O)C[C@]23C)O1` are 14 µM, 10 µM and “Reversible”.
In the case of `CC1(C)CC[C@]2(C)CC=C3C(C)(CC[C@@H]4[C@@]5(C)CC[C@H](O)C(C)(C)[C@@H]5CC[C@@]34C)[C@@H]2C1` (stereo partly drawn), the Ki in test [2] was 8 µM; in test [3] it was 5 µM. Further, the Reversibility entry in test [1] is recorded as “Reversible”.
`CC/C=C/C(C)(O)OCC1(C)C(=O)CCC2(C)C1CCC1(C)C2CCC2C3C(C)C(C)CCC3(C)CCC21C` (stereo not drawn): the values for the Ki in test [2] and in test [3] were 18 µM and 22 µM, respectively. Further, the Reversibility result in test [1] is “Reversible”.
For `C[C@H]1CC[C@@]2(OC1)O[C@H]1C[C@H]3[C@@H]4CC=C5C[C@@H](O)CC[C@]5(C)[C@H]4CC[C@]3(C)[C@H]1[C@@H]2C` the same measures were 36 µM, 25 µM and “Reversible”.
Regarding `NC(=O)c1ncn([C@@H]2O[C@H](CO)[C@@H](O)[C@H]2O)c1N` [AICAR], in test [4], the “effectiveness compared with PTP1B inhibitors” value is listed as “none of the three inhibitors were as effective as PTP1B inhibitors”.
Consider `C[C@@H]1CC[C@]2(C(=O)O)CC[C@]3(C)C(=CCC4[C@@]5(C)CC[C@H](O)C(C)(C)C5CC[C@]43C)C2[C@H]1C` (stereo partly drawn) [UA001, ursolic acid, reference compound], for which the “survival (in words)” value in test [5] was “improved the survival”.
In the case of `C[C@@H]1CC[C@]2(C(=O)NCCCCCCCCCCC(=O)N[C@@H](Cc3ccccc3)C(=O)O)CC[C@]3(C)C(=CCC4[C@@]5(C)CC[C@H](O)C(C)(C)C5CC[C@]43C)C2[C@H]1C` (stereo partly drawn) [UA0713], in test [6], the glucose intolerance result is reported as “markedly reduced”. The “effect against phosphatase panel compared to PTP1B” value in test [7] is “selectivity”. Besides, in test [5], the “survival (in words)” value is recorded as “improved the survival”. The molecule further gave an increase in survival in test [5] (Mecp2−/y male mice, 5 mg/Kg, versus saline) of 2 fold. This molecule also had a median life-span in test [5] (Mecp2−/y male mice, 5 mg/Kg, saline 40 days) of 95 days. Also, the “mode of inhibition of PTP1B” value in test [8] was “non-competitive”. Affinity in test [8] (substrate not stated) was put at a Ki of 0.15 µM.
On to `CN(C)C(=N)N=C(N)N` [metformin], for which the “effectiveness compared with PTP1B inhibitors” value in test [4] is listed as “none of the three inhibitors were as effective as PTP1B inhibitors”.
On the same count and under the same terms, the entry for `CN(CCOc1ccc(CC2SC(=O)NC2=O)cc1)c1ccccn1` (stereo not drawn) [rosiglitazone] is “none of the three inhibitors were as effective as PTP1B inhibitors”.

(Values after patent US11660306B2, “Treatment of Rett syndrome” (Cold Spring Harbor Laboratory, priority 2014, dated 2023).)
